Assay results reported in patent publication US20160257697A1, “THIOPHENE-SUBSTITUTED TETRACYCLIC COMPOUNDS AND METHODS OFUSE THEREOF FOR THE TREATMENT OF VIRAL DISEASES” (priority 2013, published 2016).
Read-outs that look alike come from different tables or passages of the source.

Assays:
Assay in all cases: microbe, parasite or virus in culture
Format in all cases: cell-based, Hepatitis C virus (HCV)
HCV replicon 1AY93H = settings: Replicon Assay A
Outline: (§1)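 HCV RNA levels were calculated from Ct values (minus intercept, divided by slope) of a Neo primer/probe standard curve, with cyclophilin quantified the same way. Cells were seeded at 2000/well and incubated with compound for 3 days in 5% serum and 0.5% DMSO.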

HCV replicon 1A = settings: Replicon Assay A
Outline: as §1

HCV replicon 2B = settings: Replicon Assay A
Outline: as §1

HCV replicon 1AQ30D = settings: Replicon Assay B
HCV replicon 1B = settings: Replicon Assay B
[1] = replicon 1AY93H, read-out: 1A Y93H IC50
[2] = replicon 1AQ30D, read-out: 1A Q30D IC50
[3] = read-out: 1A Y93H IC50, replicon 1AY93H
[4] = Hepatitis C virus, read-out: 1A Q30D IC50 (nM), replicon 1AQ30D
[5] = Hepatitis C virus, read-out: 1A Y93H IC50 (nM), replicon 1AY93H
[6] = Hepatitis C virus, read-out: 2B IC50 (nM), replicon 2B

In the case of `COC(=O)N[C@H](C(=O)N1CCC[C@@H]1c1cnc(-c2cc(F)c3c(c2)OC(c2ccc(C4(O)CC4)s2)n2c-3cc3cc(-c4ncc([C@@H]5CCCN5C(=O)[C@@H](NC(=O)OC)C(C)C)[nH]4)ccc32)[nH]1)C(C)C` (some centres unmarked) [Compound 61], the IC50 (HCV replicon 1AY93H; [1]) is reported as 0.014 nM, the IC50 (HCV replicon 1A; replicon 1A) is reported as 1.1 pM and the IC50 (HCV replicon 2B; replicon 2B, read-out: 2B IC50) is reported as 0.012 nM. The IC50 (HCV replicon 1AQ30D; [2]) was 0.22 nM and the IC50 (HCV replicon 1B; replicon 1B) was 1.1 pM.

`COC(=O)NC(C(=O)N1[C@@H]2C[C@@H]2C[C@H]1c1ncc(-c2ccc3c(c2)cc2n3C(c3ccc(CC4CC4)s3)Oc3cc(-c4cnc([C@@H]5CCCN5C(=O)[C@@H](NC(=O)OC)C(C)C)[nH]4)cc(F)c3-2)[nH]1)C1CCOC(C)(C)C1` (single isomer, unassigned) [Compound 417] showed an IC50 (HCV replicon 1AY93H; read-out: 1A Y93H IC50, HCV replicon 1A Y93H) of 0.119 nM, an IC50 (HCV replicon 1A; HCV replicon 1A) of 3.4 pM and an IC50 (HCV replicon 2B; read-out: 2B IC50, HCV replicon 2B) of 0.0098 nM. It also gave an IC50 (HCV replicon 1AQ30D; read-out: 1A Q30D IC50, HCV replicon 1A Q30D) of 0.0738 nM and an IC50 (HCV replicon 1B; HCV replicon 1B) of 6 pM.

Work on `COC(=O)N[C@H](C(=O)N1CCC[C@H]1c1ncc(-c2cc(F)c3c(c2)OC(c2ccc(C#CC4CC4)s2)n2c-3cc3cc(-c4cnc([C@@H]5CCCN5C(=O)[C@@H](NC(=O)OC)C(C)C)[nH]4)ccc32)[nH]1)C(C)C` (single isomer, unassigned) [Compound 86] yielded an IC50 (HCV replicon 1AY93H; [3]) of 0.003 nM, an IC50 (HCV replicon 1A; replicon 1A) of 1.6 pM and an IC50 (HCV replicon 2B; read-out: 2B IC50, replicon 2B) of 0.033 nM. For the same compound, the IC50 (HCV replicon 1AQ30D; [4]) was 0.11 nM and the IC50 (HCV replicon 1B; Hepatitis C virus, replicon 1B) was 1.6 pM.

`CCc1ccc(C2Oc3cc(-c4cnc([C@@H]5CCCN5C(=O)[C@@H](NC(=O)OC)C(C)C)[nH]4)cc(F)c3-c3cc4cc(-c5cnc([C@@H]6CCCN6C(=O)[C@H](NC(=O)OC)C6C[C@@H](C)O[C@@H](C)C6)[nH]5)ccc4n32)s1` (some centres unmarked) [Compound 144] gave an IC50 (HCV replicon 1AY93H; [5]) of 0.003 nM, an IC50 (HCV replicon 1A; Hepatitis C virus, replicon 1A) of 3 pM and an IC50 (HCV replicon 2B; [6]) of 0.022 nM. For the same compound, the IC50 (HCV replicon 1AQ30D; [4]) was 0.057 nM and the IC50 (HCV replicon 1B; Hepatitis C virus, replicon 1B) was 2.1 pM.

With `COC(=O)NC(C(=O)N1CCC[C@H]1c1ncc(-c2ccc3c(c2)cc2n3C(c3ccc(C4CC4)s3)Oc3cc(-c4cnc([C@@H]5CCCN5C(=O)[C@@H](NC(=O)OC)C(C)C)[nH]4)cc(F)c3-2)[nH]1)C1C2COCC21` (single isomer, unassigned) [Compound 339] the IC50 (HCV replicon 1AY93H; [3]) was 0.0047 nM, the IC50 (HCV replicon 1A; replicon 1A) was 2 pM and the IC50 (HCV replicon 2B; read-out: 2B IC50, replicon 2B) was 0.0292 nM. It also gave an IC50 (HCV replicon 1AQ30D; [4]) of 0.133 nM and an IC50 (HCV replicon 1B; Hepatitis C virus, replicon 1B) of 2.2 pM.

`COC(=O)N[C@H](C(=O)N1CCC[C@H]1c1ncc(-c2cc(F)c3c(c2)OC(c2ccc(CCF)s2)n2c-3cc3cc(-c4cnc([C@@H]5CCCN5C(=O)[C@@H](NC(=O)OC)C(C)C)[nH]4)ccc32)[nH]1)C(C)C` (single isomer, unassigned) [Compound 44] showed an IC50 (HCV replicon 1AY93H; [3]) of 0.012 nM, an IC50 (HCV replicon 1A; replicon 1A) of 1.5 pM and an IC50 (HCV replicon 2B; read-out: 2B IC50, replicon 2B) of 0.1 nM. For the same compound, the IC50 (HCV replicon 1AQ30D; [4]) was 0.54 nM and the IC50 (HCV replicon 1B; Hepatitis C virus, replicon 1B) was 1.2 pM.

For `COC(=O)N[C@H](C(=O)N1CCC[C@H]1c1ncc(-c2ccc3c(c2)OC(c2cc4ccccc4s2)n2c-3cc3cc(-c4cnc([C@@H]5CCCN5C(=O)[C@@H](NC(=O)OC)C5CCOCC5)[nH]4)ccc32)[nH]1)C1CCOCC1` (single isomer, unassigned) [Compound 262], the IC50 (HCV replicon 1AY93H; [3]) was 0.052 nM, the IC50 (HCV replicon 1A; Hepatitis C virus, replicon 1A) was 4.2 pM and the IC50 (HCV replicon 2B; read-out: 2B IC50, replicon 2B) was 0.019 nM. For the same compound, the IC50 (HCV replicon 1AQ30D; read-out: 1A Q30D IC50, replicon 1AQ30D) was 0.12 nM and the IC50 (HCV replicon 1B; Hepatitis C virus, replicon 1B) was 4 pM.

`COC(=O)N[C@H](C(=O)N1CCC[C@H]1c1ncc(-c2cc(F)c3c(c2)OC(c2ccc(C(C)(C)C)s2)n2c-3cc3cc(-c4cnc([C@@H]5CCCN5C(=O)[C@@H](NC(=O)OC)C(C)C)[nH]4)ccc32)[nH]1)C(C)C` (single isomer, unassigned) [Compound 63] showed an IC50 (HCV replicon 1AY93H; [1]) of 0.01 nM, an IC50 (HCV replicon 1A; replicon 1A) of 3.2 pM and an IC50 (HCV replicon 2B; replicon 2B, read-out: 2B IC50) of 0.27 nM. It also gave an IC50 (HCV replicon 1AQ30D; [2]) of 0.34 nM and an IC50 (HCV replicon 1B; replicon 1B) of 2.4 pM.

`COC(=O)N[C@H](C(=O)N1CCC[C@H]1c1ncc(-c2cc(F)c3c(c2)OC(c2ccc(C(F)F)s2)n2c-3cc3cc(-c4cnc([C@@H]5CCCN5C(=O)[C@@H](NC(=O)OC)C(C)C)[nH]4)ccc32)[nH]1)C(C)C` (single isomer, unassigned) [Compound 45] showed an IC50 (HCV replicon 1AY93H; [1]) of 0.01 nM, an IC50 (HCV replicon 1A; replicon 1A) of 1.1 pM and an IC50 (HCV replicon 2B; replicon 2B, read-out: 2B IC50) of 0.044 nM. It also gave an IC50 (HCV replicon 1AQ30D; [2]) of 0.37 nM and an IC50 (HCV replicon 1B; replicon 1B) of 1.1 pM.

For `COC(=O)NC(C(=O)N1CCC[C@H]1c1ncc(-c2cc(F)c3c(c2)OC(c2ccc(C4CCC4)s2)n2c-3cc3cc(-c4cnc([C@@H]5CCCN5C(=O)[C@@H](NC(=O)OC)C5CCOCC5)[nH]4)ccc32)[nH]1)C(C)(C)F` (some centres unmarked) [Compound 250], the IC50 (HCV replicon 1AY93H; [5]) was 0.003 nM, the IC50 (HCV replicon 1A; Hepatitis C virus, replicon 1A) was 2.2 pM and the IC50 (HCV replicon 2B; [6]) was 0.001 nM. For the same compound, the IC50 (HCV replicon 1AQ30D; [4]) was 0.013 nM and the IC50 (HCV replicon 1B; Hepatitis C virus, replicon 1B) was 2.9 pM.
